Source: patent publication US9884063B2, “Amido-substituted azole compounds” (Bayer Pharma Aktiengesellschaft, priority 2014, dated 2018)

Biological target: T1, TNKS1 (Homo sapiens, UniProt O95271)
T1 sequence (O95271 1-1327): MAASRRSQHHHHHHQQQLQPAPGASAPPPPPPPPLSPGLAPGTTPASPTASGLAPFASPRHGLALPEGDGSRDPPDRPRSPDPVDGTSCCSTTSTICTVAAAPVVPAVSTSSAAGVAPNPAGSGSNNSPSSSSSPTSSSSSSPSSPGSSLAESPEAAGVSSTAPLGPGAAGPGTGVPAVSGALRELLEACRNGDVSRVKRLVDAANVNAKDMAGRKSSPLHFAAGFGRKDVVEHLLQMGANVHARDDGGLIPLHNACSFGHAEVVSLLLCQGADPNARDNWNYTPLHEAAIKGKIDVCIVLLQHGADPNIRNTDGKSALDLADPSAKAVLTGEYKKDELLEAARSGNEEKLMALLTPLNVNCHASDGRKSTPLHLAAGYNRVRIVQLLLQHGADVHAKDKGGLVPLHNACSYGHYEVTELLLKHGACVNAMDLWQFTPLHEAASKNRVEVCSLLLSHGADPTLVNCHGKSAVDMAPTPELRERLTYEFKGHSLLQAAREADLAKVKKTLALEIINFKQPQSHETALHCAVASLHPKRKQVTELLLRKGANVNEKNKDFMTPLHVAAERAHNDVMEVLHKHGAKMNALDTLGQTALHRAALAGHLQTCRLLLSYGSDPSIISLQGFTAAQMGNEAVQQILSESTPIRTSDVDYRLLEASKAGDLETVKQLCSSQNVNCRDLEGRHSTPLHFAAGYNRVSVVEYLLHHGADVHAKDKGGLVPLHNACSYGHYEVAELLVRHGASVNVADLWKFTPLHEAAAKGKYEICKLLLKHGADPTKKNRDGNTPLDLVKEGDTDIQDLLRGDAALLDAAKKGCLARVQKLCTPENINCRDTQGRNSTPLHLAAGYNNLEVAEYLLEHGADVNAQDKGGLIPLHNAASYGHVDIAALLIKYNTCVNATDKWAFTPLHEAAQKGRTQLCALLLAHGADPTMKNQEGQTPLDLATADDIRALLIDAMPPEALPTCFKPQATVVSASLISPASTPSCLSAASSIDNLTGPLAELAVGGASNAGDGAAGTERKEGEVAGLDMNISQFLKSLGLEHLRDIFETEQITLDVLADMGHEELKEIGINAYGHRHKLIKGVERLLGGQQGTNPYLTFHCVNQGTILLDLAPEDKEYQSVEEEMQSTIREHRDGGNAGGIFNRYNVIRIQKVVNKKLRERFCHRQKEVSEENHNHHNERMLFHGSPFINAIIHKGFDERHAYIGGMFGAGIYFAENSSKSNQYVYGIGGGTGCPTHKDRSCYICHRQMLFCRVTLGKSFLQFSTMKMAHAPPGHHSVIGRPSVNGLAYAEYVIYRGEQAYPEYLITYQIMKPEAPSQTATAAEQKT
Test: Modified TNKS1 Assay 2 (auto-parsylation, [3H]-NAD+ SPA)
Assay type: biochemical
Settings: 6 nM TNKS1, 96 well

| Compound | IC50 [µM] |
| --- | --- |
| CC(CN1CCOCC1)NC(=O)c1[nH]cnc1C(=O)Nc1ccc(NC(=O)c2ccc(F)cc2Cl)cc1 (single isomer, unassigned; enantiomer 2) [Example 270, N^4-{4-[(2-chloro-4-fluorobenzoyl)amino]phenyl}-N^5-[1-(morpholin-4-yl)propan-2-yl]-1H-imidazole-4,5-dicarboxamide (enantiomer 2)] | 0.004 |
| O=C(Nc1ccc(NC(=O)c2[nH]cnc2C(=O)NC2CC2)cc1)c1cc(F)c(F)cc1Cl [Example 51, N^5-{4-[(2-chloro-4,5-difluorobenzoyl)amino]phenyl}-N^4-cyclopropyl-1H-imidazole-4,5-dicarboxamide] | 0.02 |
| O=C(Nc1ccc(NC(=O)c2[nH]cnc2C(=O)N2CC3(COC3)C2)cc1)c1cc(F)c(F)cc1Cl [Example 52, N-{4-[(2-chloro-4,5-difluorobenzoyl)amino]phenyl}-4-(2-oxa-6-azaspiro[3.3]hept-6-ylcarbonyl)-1H-imidazole-5-carboxamide] | 0.03 |
| CNC(=O)c1nc[nH]c1C(=O)Nc1ccc(NC(=O)c2ccc(S(C)(=O)=O)cc2Cl)cc1 [Example 55, N^5-(4-{[2-chloro-4-(methylsulfonyl)benzoyl]amino}phenyl)-N^4-methyl-1H-imidazole-4,5-dicarboxamide] | 0.12 |
| CNC(=O)c1nc[nH]c1C(=O)Nc1ccc(NC(=O)c2ccc(F)cc2I)cc1 [Example 61, N^5-{4-[(4-fluoro-2-iodobenzoyl)amino]phenyl}-N^4-methyl-1H-imidazole-4,5-dicarboxamide] | 0.03 |
| CNC(=O)c1nc[nH]c1C(=O)Nc1ccc(NC(=O)c2cc(OC(F)(F)F)ccc2Br)cc1 [Example 64, N^5-(4-{[2-bromo-5-(trifluoromethoxy)benzoyl]amino}phenyl)-N^4-methyl-1H-imidazole-4,5-dicarboxamide] | > 10 |
| CCc1nc(C(=O)Nc2ccc(NC(=O)c3ccc(F)cc3Cl)cc2)c(C(=O)NC)[nH]1 [Example 68, N^4-{4-[(2-chloro-4-fluorobenzoyl)amino]phenyl}-2-ethyl-N^5-methyl-1H-imidazole-4,5-dicarboxamide] | > 10 |
| CCNC(=O)c1nc[nH]c1C(=O)Nc1ccc(NC(=O)c2cccc(OC)c2Cl)cc1 [Example 260, N^5-{4-[(2-chloro-3-methoxybenzoyl)amino]phenyl}-N^4-ethyl-1H-imidazole-4,5-dicarboxamide] | 3 |
| CCNC(=O)c1nc[nH]c1C(=O)Nc1ccc(NC(=O)c2ncccc2Cl)cc1 [Example 261, N^5-(4-{[(3-chloropyridin-2-yl)carbonyl]amino}phenyl)-N^4-ethyl-1H-imidazole-4,5-dicarboxamide] | 0.23 |
| O=C(Nc1ccc(NC(=O)c2nc[nH]c2C(=O)N[C@H]2CCNC2)cc1)c1ccc(F)cc1Cl [Example 281, N^4-{4-[(2-chloro-4-fluorobenzoyl)amino]phenyl}-N^5-[(3S)-pyrrolidin-3-yl]-1H-imidazole-4,5-dicarboxamide] | 0.06 |
| CNC(=O)c1nc[nH]c1C(=O)Nc1ccc(NC(=O)c2ccc(C#N)cc2)cc1 [Example 322, N^5-{4-[(4-cyanobenzoyl)amino]phenyl}-N^4-methyl-1H-imidazole-4,5-dicarboxamide] | 1 |
| CNC(=O)c1nc[nH]c1C(=O)Nc1ccc(NC(=O)c2ccc(Br)cc2Cl)cc1 [Example 334, N^5-{4-[(4-bromo-2-chlorobenzoyl)amino]phenyl}-N^4-methyl-1H-imidazole-4,5-dicarboxamide] | 0.06 |

More lines, now with the values ahead:

| IC50 [µM] | Compound |
| --- | --- |
| > 10 | O=C(Nc1ccc(NC(=O)c2[nH]cnc2C(=O)NCCC2CCCC2)cc1)c1ccc(F)cc1Cl [Example 42, N^5-{4-[(2-chloro-4-fluorobenzoyl)amino]phenyl}-N^4-(2-cyclopentylethyl)-1H-imidazole-4,5-dicarboxamide] |
| 9.2 | O=C(Nc1ccc(NC(=O)c2[nH]cnc2C(=O)NCCC2CC2)cc1)c1ccc(F)cc1Cl [Example 43, N^5-{4-[(2-chloro-4-fluorobenzoyl)amino]phenyl}-N^4-(2-cyclopropylethyl)-1H-imidazole-4,5-dicarboxamide] |
| 0.02 | CS(=O)(=O)c1ccc(C(=O)Nc2ccc(NC(=O)c3[nH]cnc3C(=O)NCCN3CCCCC3)cc2)c(Cl)c1 [Example 53, N^5-(4-{[2-chloro-4-(methylsulfonyl)benzoyl]amino}phenyl)-N^4-[2-(piperidin-1-yl)ethyl]-1H-imidazole-4,5-dicarboxamide] |
| 0.1 | COC(=O)c1nc[nH]c1C(=O)Nc1ccc(NC(=O)c2ccc(F)cc2Cl)c(F)c1 [Example 71, methyl 5-({4-[(2-chloro-4-fluorobenzoyl)amino]-3-fluorophenyl}carbamoyl)-1H-imidazole-4-carboxylate] |
| 0.99 | CN(C)CCNC(=O)c1nc[nH]c1C(=O)Nc1ccc(NC(=O)c2ccc(F)cc2)c(F)c1 [Example 77, N^4-[2-(dimethylamino)ethyl]-N^5-{3-fluoro-4-[(4-fluorobenzoyl)amino]phenyl}-1H-imidazole-4,5-dicarboxamide] |
| > 10 | O=C(Nc1ccc(NC(=O)c2[nH]cnc2C(=O)NCCN2CCCCC2)cc1F)c1ccc(F)cc1 [Example 78, N^5-{3-fluoro-4-[(4-fluorobenzoyl)amino]phenyl}-N^4-[2-(piperidin-1-yl)ethyl]-1H-imidazole-4,5-dicarboxamide] |
| 0.69 | CNC(=O)c1nc[nH]c1C(=O)Nc1ccc(NC(=O)c2ccccc2Cl)c(F)c1 [Example 80, N^5-{4-[(2-chlorobenzoyl)amino]-3-fluorophenyl}-N^4-methyl-1H-imidazole-4,5-dicarboxamide] |
| 0.06 | CN(C)CCNC(=O)c1nc[nH]c1C(=O)Nc1ccc(NC(=O)c2ccccc2Cl)c(F)c1 [Example 81, N^5-{4-[(2-chlorobenzoyl)amino]-3-fluorophenyl}-N^4-[2-(dimethylamino)ethyl]-1H-imidazole-4,5-dicarboxamide] |
| 0.17 | Cc1cc(NC(=O)c2[nH]cnc2C(=O)NCCN(C)C)ccc1NC(=O)c1ccc(F)cc1Cl [Example 84, N^5-{4-[(2-chloro-4-fluorobenzoyl)amino]-3-methylphenyl}-N^4-[2-(dimethylamino)ethyl]-1H-imidazole-4,5-dicarboxamide] |
| 0.009 | Cc1cc(NC(=O)c2[nH]cnc2C(=O)NCCN2CCCCC2)ccc1NC(=O)c1ccc(F)cc1Cl [Example 85, N^5-{4-[(2-chloro-4-fluorobenzoyl)amino]-3-methylphenyl}-N^4-[2-(piperidin-1-yl)ethyl]-1H-imidazole-4,5-dicarboxamide] |
| 0.04 | NCCNC(=O)c1[nH]cnc1C(=O)Nc1ccc(NC(=O)c2ccc(F)cc2Cl)cc1 [Example 290, N^5-(2-aminoethyl)-N^4-{4-[(2-chloro-4-fluorobenzoyl)amino]phenyl}-1H-imidazole-4,5-dicarboxamide] |
| 0.08 | O=C(Nc1ccc(NC(=O)c2nc[nH]c2C(=O)NCCN2CCCCC2)cc1OC(F)(F)F)c1ccc(F)cc1Cl [Example 293, N^4-{4-[(2-chloro-4-fluorobenzoyl)amino]-3-(trifluoromethoxy)phenyl}-N^5-[2-(piperidin-1-yl)ethyl]-1H-imidazole-4,5-dicarboxamide] |
| 0.21 | CC(CN1CCOCC1)NC(=O)c1[nH]cnc1C(=O)Nc1ccc(NC(=O)c2ccc(F)cc2)cc1 (stereo not shown) [Example 294, N^4-{4-[(4-fluorobenzoyl)amino]phenyl}-N^5-[1-(morpholin-4-yl)propan-2-yl]-1H-imidazole-4,5-dicarboxamide] |
